Source: patent publication US11230543B2, “Biaryl monobactam compounds and methods of use thereof for the treatment of bacterial infections” (priority 2015, dated 2022)
Where a name gives a salt, the structure may show the parent alone.

Key:
[1] = tested on: Pseudomonas aeruginosa expressing AmpC (CL5701); test: Antibiotic activity: growth inhibitory concentration (OD600), Pseudomonas aeruginosa CL5701; type: cell-based; conditions: lowest concentration inhibiting 95% of bacterial growth; in the presence of β lactamase inhibitor Relebactam 4 μg/mL; 35±2° C. for 22 hours; tested range 100 μM to 0.098 μM
Outline: (§1)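 Growth inhibition by OD600 after 22 hours incubation at 35±2° C, reported as lowest concentration inhibiting 95% of growth (MITC95). Final compound range 100 μM to 0.098 μM, always combined with β-lactamase inhibitor relebactam (4 μg/mL final); inoculum ~2×10^5 CFU/mL in cation-adjusted Mueller-Hinton II broth.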

[2] = tested on: Klebsiella pneumoniae expressing KPC-1 (CL6569); test: Antibiotic activity: growth inhibitory concentration (OD600), Klebsiella pneumoniae CL6569; type: cell-based; conditions: lowest concentration inhibiting 95% of bacterial growth; in the presence of β lactamase inhibitor Relebactam 4 μg/mL; 35±2° C. for 22 hours; tested range 100 μM to 0.098 μM
Outline: as §1

Row | Compound | PA_CL5701 MITC95 [1] | KP_CL6569 MITC95 [2]
1 | C[n+]1cc(-c2ccc(OC[C@](C)(O/N=C(\C(=O)N[C@@H]3C(=O)N(OS(=O)(=O)O)C3(C)C)c3csc(N)n3)C(=O)O)cc2)ccc1NCCN [Example 87, (S)-3-((Z)-2-((((S)-1-(4-(6-((2-aminoethyl)amino)-1-methylpyridin-1-ium-3-yl)phenoxy)-2-carboxypropan-2-yl)oxy)imino)-2-(2-aminothiazol-4-yl)acetamido)-2,2-dimethyl-4-oxoazetidin-1-yl sulfate] | 3.125 µM | 0.1953 µM
2 | C[n+]1cc(-c2ccc(OC[C@@H](CO)O/N=C(\C(=O)N[C@@H]3C(=O)N(OS(=O)(=O)O)C3(C)C)c3csc(N)n3)cc2)ccc1NCCN [Example 89, (S)-3-((Z)-2-((((R)-1-(4-(6-((2-aminoethyl)amino)-1-methylpyridin-1-ium-3-yl)phenoxy)-3-hydroxypropan-2-yl)oxy)imino)-2-(2-aminothiazol-4-yl)acetamido)-2,2-dimethyl-4-oxoazetidin-1-yl sulfate] | 50 µM | 1.563 µM
3 | C[n+]1ccc(-c2ccc(OC[C@H](O/N=C(\C(=O)N[C@@H]3C(=O)N(OS(=O)(=O)[O-])C3(C)C)c3csc(N)n3)C(=O)O)cc2)cc1NCC1CNC1 [Example 65, (S)-3-((Z)-2-(2-aminothiazol-4-yl)-2-(((S)-2-(4-(2-((azetidin-3-ylmethyl)amino)-1-methylpyridin-1-ium-4-yl)phenoxy)-1-carboxy-ethoxy)imino)acetamido)-2,2-dimethyl-4-oxoazetidin-1-yl sulfate] | 12.5 µM | 0.3906 µM
4 | CC(CN)Nc1ccc(-c2ccc(OC[C@H](O/N=C(\C(=O)N[C@@H]3C(=O)N(OS(=O)(=O)[O-])C3(C)C)c3csc(N)n3)C(=O)O)cc2)c[n+]1C (stereo partly drawn) [Example 75, (3S)-3-((Z)-2-(((1S)-2-(4-(6-((1-aminopropan-2-yl)amino)-1-methylpyridin-1-ium-3-yl)phenoxy)-1-carboxyethoxy)imino)-2-(2-aminothiazol-4-yl)acetamido)-2,2-dimethyl-4-oxoazetidin-1-yl sulfate] | 3.125 µM | 0.1953 µM
5 | C[n+]1cc(-c2ccc(OC[C@H](O/N=C(\C(=O)N[C@@H]3C(=O)N(OS(=O)(=O)[O-])C3(C)C)c3csc(N)n3)C(=O)O)cc2)ccc1NCC1(O)CNC1 [Example 73, (S)-3-((Z)-2-(2-aminothiazol-4-yl)-2-(((S)-1-carboxy-2-(4-(6-(((3-hydroxyazetidin-3-yl)methyl)amino)-1-methylpyridin-1-ium-3-yl)phenoxy)ethoxy)imino)acetamido)-2,2-dimethyl-4-oxoazetidin-1-yl sulfate] | 3.125 µM | 0.1953 µM
6 | C[n+]1cc(-c2ccc(OC(CO/N=C(\C(=O)N[C@@H]3C(=O)N(OS(=O)(=O)[O-])C3(C)C)c3csc(N)n3)C(=O)O)cc2)cn1CCCN (single isomer, unassigned) [Example 85] | 40 µM | 2.5 µM
7 | CC1(C)[C@H](NC(=O)/C(=N\O[C@@H](COc2ccc(-c3cnn(CCCN)c3)nc2)C(=O)O)c2csc(N)n2)C(=O)N1OS(=O)(=O)O.O=C(O)C(F)(F)F [Example 13, 3-(4-(5-((S)-2-((((Z)-1-(2-aminothiazol-4-yl)-2-(((S)-2,2-dimethyl-4-oxo-1-(sulfooxy)azetidin-3-yl)amino)-2-oxo-ethylidene)amino)oxy)-2-carboxyethoxy)pyridin-2-yl)-1H-pyrazol-1-yl)propan-1-aminium 2,2,2-trifluoroacetate] | 12.5 µM | 0.7813 µM
8 | C[n+]1cc(-c2ccc(OC[C@H](O/N=C(\C(=O)N[C@@H]3C(=O)N(OS(=O)(=O)[O-])C3(C)C)c3csc(N)n3)C(=O)O)cc2)ccc1C(=O)NC(CN)CN [Example 80, (S)-3-((Z)-2-(2-aminothiazol-4-yl)-2-(((S)-1-carboxy-2-(4-(6-((1,3-diaminopropan-2-yl)carbamoyl)-1-methylpyridin-1-ium-3-yl)phenoxy)ethoxy)imino)acetamido)-2,2-dimethyl-4-oxoazetidin-1-yl sulfate] | 3.125 µM | 0.1953 µM
9 | CC1(C)[C@H](NC(=O)/C(=N\O[C@@H](COc2ccc(-c3cn(CCCN)[n+](CC(F)CN)c3)cc2)C(=O)O)c2csc(N)n2)C(=O)N1OS(=O)(=O)[O-] (single isomer, unassigned) [Example 120] | 3.125 µM | 0.1953 µM
10 | C[C@@H]1[C@H](NC(=O)/C(=N\O[C@@H](COc2ccc(-c3cn(CCCN)[n+](C)c3)cc2)C(=O)O)c2csc(N)n2)C(=O)N1S(=O)(=O)[O-] [Example 9, (2R,3S)-3-((Z)-2-(((S)-2-(4-(1-(3-aminopropyl)-2-methyl-1H-pyrazol-2-ium-4-yl)phenoxy)-1-carboxyethoxy)imino)-2-(2-aminothiazol-4-yl)acetamido)-2-methyl-4-oxoazetidine-1-sulfonate] | 6.25 µM | 0.3906 µM
11 | C[n+]1cc(-c2ccc(OC[C@H](O/N=C(\C(=O)N[C@@H]3C(=O)N(OS(=O)(=O)[O-])C3(C)C)c3csc(N)n3)C(=O)O)cc2)ccc1NCC1(N)CC1 [Example 74, (S)-3-((Z)-2-(((S)-2-(4-(6-(((1-aminocyclopropyl)methyl)amino)-1-methylpyridin-1-ium-3-yl)phenoxy)-1-carboxyethoxy)imino)-2-(2-aminothiazol-4-yl)acetamido)-2,2-dimethyl-4-oxoazetidin-1-yl sulfate] | 6.25 µM | 0.1953 µM
12 | CC1(C)[C@H](NC(=O)/C(=N\O[C@@H](COc2ccc(-c3cn(CCCN)nc3N)cc2)C(=O)O)c2csc(N)n2)C(=O)N1OS(=O)(=O)O [Example 27, (S)-3-(4-(3-amino-1-(3-aminopropyl)-1H-pyrazol-4-yl)phenoxy)-2-((((Z)-1-(2-aminothiazol-4-yl)-2-(((S)-2,2-dimethyl-4-oxo-1-(sulfooxy)azetidin-3-yl)amino)-2-oxoethylidene)amino)oxy)propanoic acid] | 6.25 µM | 0.7813 µM
13 | C[n+]1ccc(-c2ccc(OC[C@H](O/N=C(\C(=O)N[C@@H]3C(=O)N(OS(=O)(=O)[O-])C3(C)C)c3csc(N)n3)C(=O)O)cc2)cc1NCCCN [Example 63, (S)-3-((Z)-2-(((S)-2-(4-(2-((3-aminopropyl)amino)-1-methylpyridin-1-ium-4-yl)phenoxy)-1-carboxyethoxy)imino)-2-(2-aminothiazol-4-yl)acetamido)-2,2-dimethyl-4-oxoazetidin-1-yl sulfate] | 6.25 µM | 0.3906 µM
14 | CC1(C)[C@H](NC(=O)/C(=N\OCCOc2ccc(-c3cnn(CCCN)c3)cc2)c2csc(N)n2)C(=O)N1OS(=O)(=O)O [Example 5, (S,Z)-3-(2-((2-(4-(1-(3-aminopropyl)-1H-pyrazol-4-yl)phenoxy)ethoxy)imino)-2-(2-aminothiazol-4-yl)acetamido)-2,2-dimethyl-4-oxoazetidin-1-yl sulfate] | 50 µM | 6.25 µM
